From ChEMBL document CHEMBL1149781, “New glycosidic derivatives of histidine-containing dipeptides with antioxidant properties and resistant to carnosinase activity” (Eur J Med Chem, 2008)

How the values were obtained:
Assay type in all cases: functional
[1] = Antioxidant activity against copper-induced lipid peroxidation in human LDL assessed as inhibition of malondialdehyde formation at 5 uM relative to control; set-up: scale not given: the % may be the effect or the level left
[2] = Antioxidant activity against copper-induced lipid peroxidation in human LDL assessed as inhibition of malondialdehyde formation at 100 uM relative to control; set-up: scale not given: the % may be the effect or the level left
[3] = Antioxidant activity against copper-induced lipid peroxidation in human LDL assessed as inhibition of malondialdehyde formation at 2 uM relative to control; set-up: scale not given: the % may be the effect or the level left
[4] = Antioxidant activity against copper-induced lipid peroxidation in human LDL assessed as inhibition of malondialdehyde formation at 50 uM relative to control; set-up: scale not given: the % may be the effect or the level left
[5] = Antioxidant activity against copper-induced lipid peroxidation in human LDL assessed as inhibition of malondialdehyde formation at 10 uM relative to control; set-up: scale not given: the % may be the effect or the level left
[6] = Antioxidant activity against copper-induced lipid peroxidation in human LDL assessed as inhibition of malondialdehyde formation at 20 uM relative to control; set-up: scale not given: the % may be the effect or the level left
[7] = Antioxidant activity against copper-induced lipid peroxidation in human LDL assessed as inhibition of malondialdehyde formation at 200 uM relative to control; set-up: scale not given: the % may be the effect or the level left
[8] = Antioxidant activity against copper-induced lipid peroxidation in human LDL assessed as inhibition of malondialdehyde formation

**Q.** Which results are given for `OC[C@H]1O[C@@H]2O[C@H]3[C@H](O)[C@@H](O)[C@@H](O[C@H]4[C@H](O)[C@@H](O)[C@@H](O[C@H]5[C@H](O)[C@@H](O)[C@@H](O[C@H]6[C@H](O)[C@@H](O)[C@@H](O[C@H]7[C@H](O)[C@@H](O)[C@@H](O[C@H]8[C@H](O)[C@@H](O)[C@@H](O[C@H]1[C@H](O)[C@H]2O)O[C@@H]8CO)O[C@@H]7CO)O[C@@H]6CO)O[C@@H]5CO)O[C@@H]4CO)O[C@@H]3CO`?
**A.** Activity [1]: 0.38%; Activity [2]: 6.94%; Activity [3]: 0.11%; Activity [4]: 3.87%; Activity [5]: 0.65%; Activity [6]: 1.26%; Activity [7]: 10.7%

**Q.** With `Cn1cncc1CC(NC(=O)CCNC[C@H]1O[C@@H]2O[C@H]3[C@H](O)[C@@H](O)[C@@H](O[C@H]4[C@H](O)[C@@H](O)[C@@H](O[C@H]5[C@H](O)[C@@H](O)[C@@H](O[C@H]6[C@H](O)[C@@H](O)[C@@H](O[C@H]7[C@H](O)[C@@H](O)[C@@H](O[C@H]8[C@H](O)[C@@H](O)[C@@H](O[C@H]1[C@H](O)[C@H]2O)O[C@@H]8CO)O[C@@H]7CO)O[C@@H]6CO)O[C@@H]5CO)O[C@@H]4CO)O[C@@H]3CO)C(=O)O` (some centres not stated) as the compound, how does the IC50 [8] read?
**A.** The IC50 was 88.7 µM.

**Q.** With `Cn1cncc1C[C@H](NC(=O)CCN)C(=O)O` as the compound, how does the Activity [1] read?
**A.** Its Activity is 0.51%.

**Q.** And the Activity [2]?
**A.** The Activity was 12.2%.

**Q.** And the Activity [3]?
**A.** The Activity was 0.23%.

**Q.** What about the Activity [4] of the same compound?
**A.** Its Activity is 8.55%.

**Q.** And the Activity [5]?
**A.** The Activity was 1.05%.

**Q.** And the Activity [6]?
**A.** The Activity was 2.14%.

**Q.** And the Activity [7]?
**A.** The Activity was 18.7%.

**Q.** For `O=C(CCN[C@@H]1[C@@H](O)[C@H]2O[C@H]3[C@H](O)[C@@H](O)[C@@H](O[C@H]4[C@H](O)[C@@H](O)[C@@H](O[C@H]5[C@H](O)[C@@H](O)[C@@H](O[C@H]6[C@H](O)[C@@H](O)[C@@H](O[C@H]7[C@H](O)[C@@H](O)[C@@H](O[C@H]8[C@H](O)[C@@H](O)[C@@H](O[C@@H]1[C@@H](CO)O2)O[C@@H]8CO)O[C@@H]7CO)O[C@@H]6CO)O[C@@H]5CO)O[C@@H]4CO)O[C@@H]3CO)NC(Cc1cnc[nH]1)C(=O)O` (some centres not stated), which IC50 [8] is on record?
**A.** Its IC50 is 23.4 µM.

**Q.** Which IC50 [8] does the source give for `Cn1cncc1CC(NC(=O)CCN[C@@H]1[C@@H](O)[C@H]2O[C@H]3[C@H](O)[C@@H](O)[C@@H](O[C@H]4[C@H](O)[C@@H](O)[C@@H](O[C@H]5[C@H](O)[C@@H](O)[C@@H](O[C@H]6[C@H](O)[C@@H](O)[C@@H](O[C@H]7[C@H](O)[C@@H](O)[C@@H](O[C@H]8[C@H](O)[C@@H](O)[C@@H](O[C@@H]1[C@@H](CO)O2)O[C@@H]8CO)O[C@@H]7CO)O[C@@H]6CO)O[C@@H]5CO)O[C@@H]4CO)O[C@@H]3CO)C(=O)O` (some centres not stated) here?
**A.** Its IC50 is 41.6 µM.
